From US20110184147A1, “ENZYME SUBSTRATE FOR LABELING OF PROTEIN” (priority 2008, published 2011)
“Also recorded” adds a separate entry of the source. Square brackets hold non-standard residues; d marks the D form. Peptide text beside a SMILES is read from it. * marks the point of attachment. ξ: configuration not given here. Dansyl = CN(C)c1cccc2c(S(=O)(=O)*)cccc12; ξQ = NC(=O)CCC(N)C(=O)O; Ahx = NCCCCCC(=O)O

What was measured:
NK6-AP [1] = molecular target: T1, NK6-AP (Escherichia coli, UniProt P00634); assay: Degree of labeling of dual labeled protein (absorbance at 280 nm and 330 nm); details: after His-tag purification
T1 construct: NK6-AP; MKHKGSTPEMP-ALGLKLEHHHHHH; made in house
Protocol: By His-tag purification on a Ni-NTA column, the dual labeled protein was separated from an excess of Dns-β-Ala-QG-biotin. An excess of the imidazole used in the elution step was removed by gel filtration purification on a PD-10 column with 20 mM Tris-HCl (pH 8) being used as an elution buffer.
The resulting dual labeled protein was concentrated with a suction-type centrifugal evaporator and an attempt was made to calculate the degree of its labeling by measuring the absorbance at 280 nm and 330 nm.

NK6-AP [2] = molecular target: T1, NK6-AP; assay: Effect of modification on the enzymatic activity of NK6-AP (p-NPP); format: biochemical; details: AP 28 nM, p-NPP 1 mM, pH 8.0, 27° C., with vs without MTG
Protocol: The effect of introduction on the enzymatic activity was studied. In the study, p-nitrophenylphosphoric acid (p-NPP) was used as a substrate and the activities of the samples prepared in Experiment 2-2 were measured; AP would catalyze the dephosphorylation of p-NPP to form p-nitrophenol (p-NP). The reaction conditions for activity measurement were AP 28 nM, p-NPP 1 mM and pH 8.0 and at a controlled temperature of 27° C., the p-NP derived absorption at 410 nm was traced.
(§1) The activities of the samples prepared in Experiment 2-2 were measured, with p-nitrophenylphosphoric acid (p-NPP) being used as a substrate; AP would catalyze the dephosphorylation of p-NPP to form p-nitrophenol (p-NP). The reaction conditions for activity measurement were AP 28 nM, p-NPP 1 mM and pH 8.0 and at a controlled temperature of 27° C., the p-NP derived absorption at 410 nm was traced.
as §1, with “With” for “The activities of the samples prepared in Experiment 2-2 were measured, with”, “substrate, the sampled prepared in Experiment 2-4 were measured;” for “substrate;”, “(p-NP) (see below).” for “(p-NP).”

MTG [3] = molecular target: T2, MTG (Streptomyces mobaraensis, UniProt P81453); assay: MTG-catalyzed introduction of fluorescent substrates into NK6-AP (SDS-PAGE, fluorescent imager); format: biochemical, microbial; details: NK6-AP 0.5 mg/ml, MTG 1 U/ml; for Reactivity of MTG for fluorescent substrate (introduction into NK6-AP): substrate 1 mM, 10 mM Tris-HCl pH 8, overnight 4° C.
T2 construct: purchased AJINOMOTO (supplied as a gift)
Protocol: To perform a binding reaction, the fluorescent substrate (FITC-ε-Acp-QG, FITC-β-Ala-QG, Flc-QG, TR-β-Ala-QG or Dns-ε-Acp-QG), NK6-AP and MTG were added to 10 mM Tris-HCl (pH 8) to give respective final concentrations of 1 mM, 0.5 mg/ml and 1 U/ml and they were thoroughly agitated and the resulting solution was left to stand overnight at 4° C. For the purpose of comparison, an MTG-free sample was prepared.
After the reaction, the samples were subjected to SDS-polyacrylamide gel electrophoresis (SDS-PAGE). The gel from SDS-PAGE was examined with a fluorescent imager before it was stained with Coomassie Brilliant Blue (CBB) in solution. For the sample containing Dns-ε-Acp-QG, examination was made with a transilluminator.
(§2) A study was made using FITC-β-Ala-QG as a fluorescent substrate. The reaction conditions for introducing FITC-β-Ala-QG into NK6-AP were as follows: FITC-β-Ala-QG, NK6-AP and MTG were added to 10 mM Tris-HCl (pH 8) to give respective final concentrations of 0.1 mM, 0.5 mg/ml and 0.1 U/ml and they were thoroughly agitated at 4° C. for 0-5 hours. To trace the binding, the gel from SDS-PAGE was analyzed by a fluorescent imager.
as §2, with “1-1000 μM,” for “0.1 mM,”, “15 minutes. Tracing on” for “0-5 hours. To trace”, “sample after” for “binding,”, “reaction” for “gel from SDS-PAGE”, “performed” for “analyzed”, “the same procedure as in Experiment 2-4.” for “a fluorescent imager.”
Dns-β-Ala-QG-biotin, NK6-AP and MTG were added to 20 mM Tris-HCl (pH 8) to give respective final concentrations of 100 μM, 0.5 mg/ml, and 1 U/ml. For the purpose of comparison, an MTG-free sample was prepared. The ingredients were thoroughly agitated and the resulting solution was left to stand overnight at 4° C. for reaction.
After the reaction, the samples were subjected to SDS-polyacrylamide gel electrophoresis (SDS-PAGE). The gel from SDS-PAGE was examined with a transilluminator before it was stained with Coomassie Brilliant Blue (CBB) in solution.
To a 50 mM buffer whose pH was varied over the range of from 5 to 9, FITC-β-Ala-QG, NK6-AP and MTG were added to give respective final concentrations of 0.1 mM, 0.5 mg/ml, and 0.1 U/ml. These ingredients were well stirred and left to stand at 4° C. for reaction. After 6-hr or 15-minute reaction, the sample was mixed with a sample buffer and heated at 95° C. for 15 minutes to stop the reaction. Thereafter, SDS-polyacrylamide gel electrophoresis (SDS-PAGE) was applied. The gel from SDS-PAGE was stained with Coomassie Brilliant Blue (CBB) and observed with a fluorescent imager.
(§3) To 50 mM Tris-HCl (pH 8), FITC-β-Ala-QG, NK6-AP and MTG were added to give respective final concentrations of 0.1 mM, 0.5 mg/ml, and 0.001-1 U/ml. These ingredients were well stirred and left to stand at 4° C. for reaction. The reaction was stopped and evaluation was made by the same procedures as in Experiment 2-2.
as §3, with “FITC-β-Ala-QG-alkyne,” for “FITC-β-Ala-QG,”, “0.1” for “0.001-1”, “For the purpose of comparison, a MTG-free sample was also prepared. Both samples” for “These ingredients”

MTG [4] = molecular target: T2, MTG; assay: MTG-catalyzed introduction of fluorescent substrates into anti-lysozyme IgG2a antibody; format: biochemical, microbial; details: substrate 1 mM, mouse anti-lysozyme IgG2a 0.5 mg/ml, MTG 1 U/ml, pH 7, overnight 4° C.; reduced SDS-PAGE
Protocol: A fluorescent substrate (FITC-ε-Acp-QG, FITC-β-Ala-QG, TR-β-Ala-QG or […]), mouse-derived anti-lysozyme IgG2a antibody (monoclonal) and MTG were added to a 10 mM phosphate buffer (pH 7) to give respective final concentrations of 1 mM, 0.5 mg/ml and 1 U/ml. For the purpose of comparison, an MTG-free sample was prepared. The ingredients were thoroughly agitated and the resulting solution was left to stand overnight at 4° C.
After the reaction, the samples were subjected to SDS-PAGE. The gel from SDS-PAGE was examined with a fluorescent imager before it was stained with a CBB dye solution. For the Dns-ε-Acp-QG containing sample, examination was made with a transilluminator.

MTG [5] = molecular target: T2, MTG; assay: MTG-catalyzed introduction of fluorescent substrates into NK6-AP (SDS-PAGE, fluorescent imager); format: biochemical, microbial; details: substrate 1 mM, NK6-AP 0.5 mg/ml, MTG 1 U/ml, 10 mM Tris-HCl pH 8, overnight 4° C.; listed as Dns-β-Acp-QG
BSA (antigen) = assay: Antigen recognizing ability by ELISA (rabbit-derived anti-BSA IgG antibody); format: binding; details: rabbit-derived anti-BSA IgG antibody (polyclonal) modified by MTG
Protocol: A study was made on samples that were prepared by introducing a fluorescent substrate (FITC-ε-Acp-QG or FITC-β-Ala-QG) into a rabbit-derived anti-BSA IgG antibody (polyclonal) under the same conditions as in Experiment 2-2.
ELISA was performed by the following procedure (FIG. 3-5). • 1) To a Black Plate, 5 mg/ml of BSA (antigen) was added in an amount of 150 µl/well and left to stand overnight at 37° C. • 2) The product of 1) was washed with PBST five times. • 3) Modified anti-BSA IgG antibodies were added in an amount of 60 µl/well and left to stand at room temperature for 5 hours. • 4) The product of 3) was washed with PBST five times. • 5) Examination was made with a fluorescent imager. • 6) A […] sample of AP-labeled anti-rabbit IgG IgG antibodies were added in an amount of 150 µl/well and left to stand at 37° C. for 3 hours. • 7) The product of 6) was washed with TBST five times. • 8) The substrate was added and 10 minutes later, fluorescence derived from the enzymatic reaction was examined with a fluorescent imager.

avidin [6] = molecular target: avidin (Gallus gallus, UniProt P02701); details: cited from earlier work
[7] = fluorescein in FITC-β-Ala-QG; cited from earlier work
avidin [8] = assay: Immobilizing the dual labeled protein on avidin-coated microplate; format: binding; details: 1.5 μM, 37° C., 1 h; dansyl fluorescence and AP activity (ECF)
Protocol: 2-6. Immobilizing the Dual Labeled Protein on Microplate • 1) After His-tag purification, the dual labeled protein (1.5 μM) was dissolved in 20 mM Tris-HCl (pH 8) and added onto an avidin-coated microplate (product of Nunc) in an amount of 100 μl/well so that it would be immobilized by the interaction between biotin and avidin (37° C., 1 h). • 2) To observe the fluorescence derived from dansyl groups, 20 mM Tris-HCl (pH 8) was added in an amount of 100 μl/well and immobilization was verified by a fluorescent imager. • 3) A solution of ECF as a fluorescent substrate of AP was diluted 100 folds with 1 M Tris-HCl (pH 8) and added onto the plate in an amount of 100 μl/well for reaction with the immobilized AP (25° C., 5 min). (Before steps 2) and 3), a microplate washer was used to wash the plate with TBST (TBS+[…] Tween 20) three times each in an amount of 300 μl/well.)

T1 sequence (P00634 22-471): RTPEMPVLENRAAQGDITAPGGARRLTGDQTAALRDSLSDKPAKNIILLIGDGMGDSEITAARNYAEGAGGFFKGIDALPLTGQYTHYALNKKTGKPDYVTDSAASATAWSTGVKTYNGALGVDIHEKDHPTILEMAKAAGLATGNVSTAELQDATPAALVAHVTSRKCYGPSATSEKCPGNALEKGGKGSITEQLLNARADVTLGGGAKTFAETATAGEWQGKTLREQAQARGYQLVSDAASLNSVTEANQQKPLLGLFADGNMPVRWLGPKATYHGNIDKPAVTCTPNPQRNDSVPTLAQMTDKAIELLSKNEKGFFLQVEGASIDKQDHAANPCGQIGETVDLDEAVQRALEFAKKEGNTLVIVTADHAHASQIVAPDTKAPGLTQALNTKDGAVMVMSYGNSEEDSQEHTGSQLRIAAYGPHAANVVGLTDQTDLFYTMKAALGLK
T2 sequence (P81453 77-407): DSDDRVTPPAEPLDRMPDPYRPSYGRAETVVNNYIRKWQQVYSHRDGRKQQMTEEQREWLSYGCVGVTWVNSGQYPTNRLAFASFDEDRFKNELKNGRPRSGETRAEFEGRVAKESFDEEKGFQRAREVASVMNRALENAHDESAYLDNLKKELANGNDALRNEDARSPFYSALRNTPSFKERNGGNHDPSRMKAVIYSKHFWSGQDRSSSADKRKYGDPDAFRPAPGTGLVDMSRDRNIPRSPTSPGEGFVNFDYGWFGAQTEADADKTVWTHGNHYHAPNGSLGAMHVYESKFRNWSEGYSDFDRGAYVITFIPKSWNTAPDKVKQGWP
Sequence of avidin (Gallus gallus, UniProt P02701) (P02701 25-152, species assumed): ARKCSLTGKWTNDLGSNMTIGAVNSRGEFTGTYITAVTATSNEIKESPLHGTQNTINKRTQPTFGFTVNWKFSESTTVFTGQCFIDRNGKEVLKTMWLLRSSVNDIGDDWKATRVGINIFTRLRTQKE

## CN(C)c1cccc2c(S(=O)(=O)NCCC(=O)NC(CCC(N)=O)C(=O)NCC(=O)NCCOCCOCCNC(=O)CCCC[C@@H]3SC[C@@H]4NC(=O)N[C@@H]43)cccc12 (stereo partly drawn) [Dns-β-Ala-QG-biotin]
NK6-AP [1]
  Degree of labeling (moles of dansyl groups / moles of NK6-AP): 1.1
NK6-AP [2]
  Relative activity of NK6-AP after MTG-catalyzed introduction: hardly any difference in the activity of AP; also recorded: in no way affected by the introduction
MTG [3]; substrate 100 μM, 20 mM Tris-HCl pH 8, overnight 4° C.
  Reactivity of MTG for dual labeled substrate (introduction into NK6-AP): had been introduced into NK6-AP; also recorded: confirmed the MTG-catalyzed introduction

## CN(C)c1cccc2c(S(=O)(=O)NCCCCCC(=O)NC(CCC(N)=O)C(=O)NCC(=O)O)cccc12 (stereo not shown) [Dns-ε-Acp-QG] ({Dansyl-Ahx}-[ξQ]-Gly-OH)
MTG [4]
  Reactivity of antibody with fluorescent substrate by MTG catalysis: H chains of the antibody are modified; also recorded: site-specific modification of the H chains in the antibody
MTG [5]
  Reactivity of MTG for fluorescent substrate (introduction into NK6-AP): served as substrates of MTG
MTG [3]
  Reactivity of MTG for fluorescent substrate (introduction into NK6-AP): recognizable as a substrate of MTG

## NC(=O)CCC(NC(=O)CCCCCNC(=S)Nc1ccc(-c2c3ccc(=O)cc-3oc3cc(O)ccc23)c(C(=O)O)c1)C(=O)NCC(=O)O (stereo not shown) [FITC-ε-Acp-QG]
BSA (antigen)
  Antigen recognizing ability of modified antibody: maintained its antigen recognizing ability
MTG [4]
  Reactivity of antibody with fluorescent substrate by MTG catalysis: H chains of the antibody are modified; also recorded: site-specific modification of the H chains in the antibody
MTG [3]
  Reactivity of MTG for fluorescent substrate (introduction into NK6-AP): served as substrates of MTG; also recorded: recognizable as a substrate of MTG

## NC(=O)CCC(NC(=O)c1ccc(-c2c3ccc(=O)cc-3oc3cc(O)ccc23)c(C(=O)O)c1)C(=O)NCC(=O)O (stereo not shown) [Flc-QG]
MTG [3]
  Reactivity of MTG for fluorescent substrate (introduction into NK6-AP): not recognizable by MTG; also recorded: not recognized as a substrate

## O=C(O)CCCC[C@@H]1SC[C@@H]2NC(=O)N[C@@H]21 [biotin]
Avidin [6]
  Ka: 10^15 M

## fluorescein isothiocyanate [FITC]
[7]
  pKa: 6.4

B1: dual labeled protein: NK6-AP into which Dns-β-Ala-QG-biotin was introduced by MTG catalysis (conjugate)
chain: MKHKGSTPEMPVLENRAAQGDITAPGGARRLTGDQTAALRDSLSDKPAKNIILLIGDGMGDSEITAARNYAEGAGGFFKGIDALPLTGQYTHYALNKKTGKPDYVTDSAASATAWSTGVKTYNGALGVDIHEKDHPTILEMAKAAGLATGNVSTAELQDATPAALVAHVTSRKCYGPSATSEKCPGNALEKGGKGSITEQLLNARADVTLGGGAKTFAETATAGEWQGKTLREQAQARGYQLVSDAASLNSVTEANQQKPLLGLFADGNMPVRWLGPKATYHGNIDKPAVTCTPNPQRNDSVPTLAQMTDKAIELLSKNEKGFFLQVEGASIDKQDHAANPCGQIGETVDLDEAVQRALEFAKKEGNTLVIVTADHAHASQIVAPDTKAPGLTQALNTKDGAVMVMSYGNSEEDSQEHTGSQLRIAAYGPHAANVVGLTDQTDLFYTMKAALGLKLEHHHHHH
Avidin [8]
  Immobilization on avidin-coated microplate: immobilized on the microplate while retaining its function
